The values that follow come from PMC8115619, “Generation of a chemical genetic model for JAK3” (Scientific Reports, 2021).

One may read the IC50 as the concentration that gives 50% inhibition. A word on the remaining activity: it is the share of the control activity or signal that is left under treatment.

Molecules are shown by their SMILES.

Assay [1] has as its system IL-2 induced STAT5 phosphorylation in wild type CD8 T cells. The assay is described as follows: IL-2 induced STAT5 phosphorylation in wild type T cells. To be noted: inhibitor 30 min, 10 ng/ml IL-2 30 min. It is filed as cell-based, mouse. How it is done:
(§1) (A) Single cell suspensions were prepared from the spleens of wild type mice. […] Cells were then stimulated with 10 ng/ml IL-4 for 30 min and the levels of phosphorylated STAT6 determined by immunoblotting. (B) As (A) except cells were stimulated with 10 ng/ml IL-2 and the levels of phosphorylated STAT5 determined. (C) CD8 T cells were expanded from the lymph nodes of wild type and JAK3 Cys905Ser knockin mice. Cells were rested in the absence of IL-2 for 60 min then incubated with the indicated concentrations of PF-06651600 for a further 30 min before stimulation with 10 ng/ml of IL-2 for 30 min. The levels of phosphorylated STAT5 and total ERK1/2 were then determined.
(§2) Lymph Nodes were harvested from the mice and a single cell suspension in PBS made by passing the tissue through a […] strainer. The cells were counted and seeded at density of 10^6 cells/ml in RPMI supplemented with10% heat inactivated FBS (Labtech), 2 mM L-glutamine, 100 U/ml penicillin G, 100 μg/ml streptomycin, 0.25 μg/ml amphotericin and 50 μM β-mercaptoethanol and stimulated with 1 μg/ml anti-CD28 (cat:16-0281-82; clone:37.51 Thermo Fisher), 1 μg/ml anti CD3e (cat:16-0031-85, Clone:145-2C11 Thermo Fisher), 20 ng/ml of IL-2 and 1 ng/ml of IL-12. The cells were cultured for 36 h and then the cell suspension was diluted 5 times with RPMI media containing 20 ng/ml of IL-2. […]

Assay [2] concerns IL-2 induced STAT5 phosphorylation in T cells from JAK3 Cys905Ser knockin mice. The assay is described as follows: IL-2 induced STAT5 phosphorylation in JAK3 Cys905Ser knockin T cells. It is filed as cell-based, mouse. To be noted: CD8 T cells, inhibitor 30 min, 10 ng/ml IL-2 30 min. The protocol:
as §1, §2

The subject of another assay is JAK3. To be noted: ATP 4 μM; read-out: In vitro IC50 JAK3; cited from earlier work.
For the next assay, the system named is JAK1. The settings on record: ATP 40 μM; read-out: In vitro IC50 JAK1; cited from earlier work.
Another assay has as its system JAK2. The settings on record: ATP 4 μM; read-out: In vitro IC50 JAK2; cited from earlier work.
The target in the next assay is BTK (Homo sapiens, UniProt Q06187). The assay is described as follows: Selectivity screen BTK. It is filed as biochemical. To be noted: 1 µM inhibitor, mean.
The target in a further assay is EPH-B4 (Homo sapiens, UniProt P54760). As to the kind of experiment: Selectivity screen EPH-B4. To be noted: 1 µM inhibitor, mean. It is filed as biochemical. How it is done:
(§3) For the in vitro kinase assay, JAK3 (5–20 mU diluted in 50 mM Tris pH 7.5, 0.1 mM EGTA, 0.05% β-mercaptoethanol, 1 mg/ml BSA) was assayed against PDKtide ([…]) in a final volume of 25.5 µl containing 50 mM Tris pH 7.5, 0.1 mM EGTA, 0.05% β-mercaptoethanol, 100 µM substrate peptide, 10 mM magnesium acetate and 0.02 mM [33P-γ-ATP] (50–1000 cpm/pmole) and incubated for 30 min at room temperature. Assays were started by the addition of the ATP and stopped by addition of 5 µl of 0.5 M (3%) orthophosphoric acid and then harvested onto P81 Unifilter plates with a wash buffer of 50 mM orthophosphoric acid. To determine the Km for ATP, assays were run using 1, 5, 10, 20, 50, 100, 200, 400, 500 μM ATP and Km derived by non-linear regression fitting to the Michaelis–Menten equation v = Vmax[S]/(Km + [S]). IC50 values for inhibitors via non-linear regression using a parameter model: Y = Bottom + (Top–Bottom)/(1 + (IC50/X)^HillSlope). Non-linear regression was carried out in Prism (version 8). In vitro selectivity screen was carried out as described previously.

Another assay deals with IKKb (Homo sapiens, UniProt O14920). The assay is described as follows: Selectivity screen IKKb. It is filed as biochemical. To be noted: 1 µM inhibitor, mean. How it is done:
as §3

For a further assay, the target named is PAK6 (Homo sapiens, UniProt Q9NQU5). The assay is described as follows: Selectivity screen PAK6. Format: biochemical. To be noted: 1 µM inhibitor, mean. How it is done:
as §3

Assay [3] relates to GM-CSF induced STAT5 phosphorylation in BMDMs. More on the design: method as in PMID 26258521. To be noted: 5 μM; cited from earlier work.
Assay [4] has as its system IL-10 induced STAT3 phosphorylation in BMDMs. More on the design: method as in PMID 26258521. The settings on record: cited from earlier work.
In assay [5] the test system is IFNβ induced STAT1 phosphorylation in BMDMs. More on the design: method as in PMID 26258521. To be noted: cited from earlier work.
The next assay deals with PKBa (Homo sapiens, UniProt P31749). As to the kind of experiment: Selectivity screen PKBa. Format: biochemical. To be noted: 1 µM inhibitor, mean; read-out: activity remaining in the presence of the inhibitor: PKBa. How it is done:
as §3

EPH-B4, sequence (P54760 16-987): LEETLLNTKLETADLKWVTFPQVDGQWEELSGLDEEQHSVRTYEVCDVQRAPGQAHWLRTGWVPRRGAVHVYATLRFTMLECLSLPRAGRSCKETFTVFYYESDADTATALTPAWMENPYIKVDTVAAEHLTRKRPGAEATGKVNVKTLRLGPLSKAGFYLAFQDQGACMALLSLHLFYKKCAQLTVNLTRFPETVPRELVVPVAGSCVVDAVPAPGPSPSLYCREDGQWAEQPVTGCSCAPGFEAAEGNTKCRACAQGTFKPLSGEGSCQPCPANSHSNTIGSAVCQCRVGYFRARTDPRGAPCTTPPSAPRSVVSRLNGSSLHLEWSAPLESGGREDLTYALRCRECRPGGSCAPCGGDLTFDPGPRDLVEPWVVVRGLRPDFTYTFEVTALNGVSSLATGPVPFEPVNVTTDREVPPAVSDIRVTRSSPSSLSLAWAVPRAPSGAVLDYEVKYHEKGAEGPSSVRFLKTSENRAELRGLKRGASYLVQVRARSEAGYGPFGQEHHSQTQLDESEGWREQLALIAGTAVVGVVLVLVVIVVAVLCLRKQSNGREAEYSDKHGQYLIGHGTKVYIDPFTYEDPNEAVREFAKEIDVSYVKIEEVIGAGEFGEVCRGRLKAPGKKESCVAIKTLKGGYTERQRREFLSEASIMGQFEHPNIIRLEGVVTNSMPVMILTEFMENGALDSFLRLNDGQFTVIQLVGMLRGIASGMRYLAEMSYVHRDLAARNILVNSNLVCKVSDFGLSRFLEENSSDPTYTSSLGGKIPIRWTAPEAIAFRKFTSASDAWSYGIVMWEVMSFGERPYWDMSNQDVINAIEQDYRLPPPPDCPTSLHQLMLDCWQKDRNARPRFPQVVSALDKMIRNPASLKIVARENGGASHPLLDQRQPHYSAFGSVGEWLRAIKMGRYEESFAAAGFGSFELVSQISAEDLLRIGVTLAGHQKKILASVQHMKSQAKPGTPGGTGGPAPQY
PAK6, sequence (Q9NQU5 whole entry): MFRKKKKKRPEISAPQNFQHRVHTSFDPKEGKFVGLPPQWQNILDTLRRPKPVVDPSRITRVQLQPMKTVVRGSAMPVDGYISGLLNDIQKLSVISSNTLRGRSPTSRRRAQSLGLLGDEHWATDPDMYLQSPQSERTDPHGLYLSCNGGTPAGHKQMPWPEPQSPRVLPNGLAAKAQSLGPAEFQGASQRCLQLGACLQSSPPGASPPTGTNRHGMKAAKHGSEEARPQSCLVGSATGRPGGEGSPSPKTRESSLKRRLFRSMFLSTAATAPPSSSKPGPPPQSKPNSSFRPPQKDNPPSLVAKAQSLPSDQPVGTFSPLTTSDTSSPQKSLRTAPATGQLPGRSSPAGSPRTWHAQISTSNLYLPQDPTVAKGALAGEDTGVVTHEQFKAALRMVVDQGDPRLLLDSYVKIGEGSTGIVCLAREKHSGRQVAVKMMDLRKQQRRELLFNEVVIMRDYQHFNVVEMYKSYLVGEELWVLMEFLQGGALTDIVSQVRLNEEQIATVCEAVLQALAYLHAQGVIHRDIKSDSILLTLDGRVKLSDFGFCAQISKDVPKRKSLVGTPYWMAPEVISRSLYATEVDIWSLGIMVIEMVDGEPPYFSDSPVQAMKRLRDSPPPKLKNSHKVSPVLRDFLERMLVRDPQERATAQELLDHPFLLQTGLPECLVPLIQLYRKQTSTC
BTK, sequence (Q06187 whole entry): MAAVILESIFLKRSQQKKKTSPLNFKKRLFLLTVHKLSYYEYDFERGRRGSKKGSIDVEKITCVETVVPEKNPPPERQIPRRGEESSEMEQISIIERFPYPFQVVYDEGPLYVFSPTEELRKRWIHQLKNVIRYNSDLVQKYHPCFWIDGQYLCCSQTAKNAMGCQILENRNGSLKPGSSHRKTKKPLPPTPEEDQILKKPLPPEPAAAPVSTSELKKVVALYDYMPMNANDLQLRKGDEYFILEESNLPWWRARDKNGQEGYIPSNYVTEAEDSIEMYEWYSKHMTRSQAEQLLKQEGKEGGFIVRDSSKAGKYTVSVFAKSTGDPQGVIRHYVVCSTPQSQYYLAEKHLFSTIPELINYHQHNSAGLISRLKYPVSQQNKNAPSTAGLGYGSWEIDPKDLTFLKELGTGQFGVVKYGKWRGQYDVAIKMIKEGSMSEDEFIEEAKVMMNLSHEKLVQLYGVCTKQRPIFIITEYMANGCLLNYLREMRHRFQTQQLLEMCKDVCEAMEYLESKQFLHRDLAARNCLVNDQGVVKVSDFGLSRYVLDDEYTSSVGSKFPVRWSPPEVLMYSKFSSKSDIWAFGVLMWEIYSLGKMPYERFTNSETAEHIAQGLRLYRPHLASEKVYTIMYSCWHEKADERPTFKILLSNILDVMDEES
IKKb, sequence (O14920 whole entry): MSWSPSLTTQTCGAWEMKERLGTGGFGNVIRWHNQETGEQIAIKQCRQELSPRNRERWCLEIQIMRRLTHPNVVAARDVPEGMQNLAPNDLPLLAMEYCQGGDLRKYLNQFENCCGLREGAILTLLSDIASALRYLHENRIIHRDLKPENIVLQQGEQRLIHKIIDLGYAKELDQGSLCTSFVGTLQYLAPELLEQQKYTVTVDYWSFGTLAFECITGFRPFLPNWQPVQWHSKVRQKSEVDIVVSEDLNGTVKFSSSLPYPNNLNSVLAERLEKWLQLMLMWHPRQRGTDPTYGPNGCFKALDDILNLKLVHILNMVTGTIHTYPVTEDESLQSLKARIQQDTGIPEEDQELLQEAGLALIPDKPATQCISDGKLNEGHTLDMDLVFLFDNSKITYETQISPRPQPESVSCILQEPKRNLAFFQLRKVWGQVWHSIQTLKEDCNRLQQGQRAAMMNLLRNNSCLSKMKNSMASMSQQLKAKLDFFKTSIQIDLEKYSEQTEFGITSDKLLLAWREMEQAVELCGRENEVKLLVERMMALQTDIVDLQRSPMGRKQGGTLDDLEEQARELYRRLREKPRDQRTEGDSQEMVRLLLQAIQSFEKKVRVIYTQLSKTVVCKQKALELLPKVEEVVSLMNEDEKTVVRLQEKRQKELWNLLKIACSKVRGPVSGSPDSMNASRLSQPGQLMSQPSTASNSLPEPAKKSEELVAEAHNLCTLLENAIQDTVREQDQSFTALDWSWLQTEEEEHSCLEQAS
PKBa, sequence (P31749 whole entry): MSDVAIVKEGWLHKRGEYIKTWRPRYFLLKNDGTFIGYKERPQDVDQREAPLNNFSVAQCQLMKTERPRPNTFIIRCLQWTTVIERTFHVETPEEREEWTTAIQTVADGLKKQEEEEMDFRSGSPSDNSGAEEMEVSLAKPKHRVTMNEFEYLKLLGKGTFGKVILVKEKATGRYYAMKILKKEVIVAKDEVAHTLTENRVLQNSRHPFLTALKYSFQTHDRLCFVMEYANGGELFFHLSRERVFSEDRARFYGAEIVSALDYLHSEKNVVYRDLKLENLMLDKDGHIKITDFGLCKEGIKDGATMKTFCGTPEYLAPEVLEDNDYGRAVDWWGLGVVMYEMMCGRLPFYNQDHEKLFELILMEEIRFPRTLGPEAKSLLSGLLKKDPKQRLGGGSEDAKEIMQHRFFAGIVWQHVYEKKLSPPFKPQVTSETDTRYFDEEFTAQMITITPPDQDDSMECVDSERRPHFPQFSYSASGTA

As for `C=CC(=O)N1C[C@H](Nc2ncnc3[nH]ccc23)CC[C@@H]1C` [PF-06651600, 1-((2S,5R)-5-((7H-Pyrrolo[2,3-d]pyrimidin-4-yl)amino)-2-methylpiperidin-1-yl)prop-2-en-1-one, reference compound], the “block of IL-2 induced STAT5 phosphorylation in isolated wild type T cells” value in [1] was “able to block”. Besides, in [2], the “block of IL-2 induced STAT5 phosphorylation in T cells from JAK3 Cys905Ser knockin mice” value is recorded as “did not block”. The IC50 is […] with JAK3, > 10 µM in the assay on JAK1 and > 10 µM with JAK2.

For `C=CC(=O)Nc1cccc(CNc2nc(Nc3ccc(N4CCN(C)CC4)cc3OC)ncc2Cl)c1` [TL6-144], on BTK, the “activity remaining in the presence of the inhibitor: BTK” value is 37. In addition, the “activity remaining in the presence of the inhibitor: EPH-B4” value on EPH-B4 came to 83. In addition, the “activity remaining in the presence of the inhibitor: IKKb” value on IKKb is reported as 100. For the same compound, the “activity remaining in the presence of the inhibitor: PAK6” value on PAK6 worked out at 77. Further, in assay [3], the “inhibition of GM-CSF signaling in macrophages” value is on record as “does not inhibit”. Further, the “inhibition of IL-10 signaling in macrophages” value in assay [4] (5 μM) was “does not inhibit”. In addition, the “block of STAT phosphorylation by IL-10” value in [4] (10 μM as printed in discussion) is reported as “did not block”. The “inhibition of IFNβ signaling in macrophages” value in [5] (5 μM) is given as “does not inhibit”. In addition, the “block of STAT phosphorylation by IFNβ” value in assay [5] (10 μM as printed in discussion) is given as “did not block”.

As for `C=CC(=O)Nc1cccc(CNc2nc(Nc3ccc(N4CCOCC4)cc3)ncc2Cl)c1` [TL8-52], the “activity remaining in the presence of the inhibitor: BTK” value on BTK was 44. Besides, at EPH-B4, the “activity remaining in the presence of the inhibitor: EPH-B4” value is 104. For the same compound, the “activity remaining in the presence of the inhibitor: IKKb” value at IKKb worked out at 104. Also, the “activity remaining in the presence of the inhibitor: PAK6” value on PAK6 turned out to be 99. The remaining activity at 1 µM at PKBa is 100%.
